Calls of active or inactive are those of the source. No cut-off for these calls is given here.
Experiments:
[1] = tested on: Pichia kudriavzevii; assay: Antifungal activity against Candida krusei ATCC 6258 assessed as inhibition of microbial growth by NCCLS protocol based method; format: functional
[2] = tested on: Aspergillus fumigatus; assay: Antifungal activity against Aspergillus fumigatus KM8001 assessed as inhibition of microbial growth by NCCLS protocol based method; format: functional
[3] = tested on: Candida albicans; assay: Antifungal activity against Candida albicans ATCC 10231 assessed as inhibition of microbial growth by NCCLS protocol based method; format: functional
[4] = tested on: Nakaseomyces glabratus; assay: Antifungal activity against Candida glabrata ATCC 0001 assessed as inhibition of microbial growth by NCCLS protocol based method; format: functional
[5] = tested on: Candida tropicalis; assay: Antifungal activity against Candida tropicalis ATCC 1369 assessed as inhibition of microbial growth by NCCLS protocol based method; format: functional
[6] = tested on: Candida albicans; assay: Antifungal activity against Candida albicans assessed as reduction in proportion of microbes at cell division phase at 25 to 250 nM/mL by polarizing microscopy; format: functional, organism-based
[7] = tested on: Candida albicans; assay: Antifungal activity against Candida albicans assessed as reduction in cell division at 25 to 250 nM/mL by polarizing microscopy; format: functional, organism-based
[8] = tested on: Candida albicans; assay: Antifungal activity against fluconazole-resistant Candida albicans 103 assessed as inhibition of microbial growth by NCCLS protocol based method; format: functional
[9] = tested on: Candida albicans; assay: Antifungal activity against Candida albicans assessed as reduction in cell volume at 25 to 250 nM/mL by polarizing microscopy; format: functional, organism-based
[10] = tested on: Candida albicans; assay: Antifungal activity against Candida albicans assessed as inhibition of microbial growth at 25 to 250 nM/mL by polarizing microscopy; format: functional, organism-based
[11] = tested on: Candida albicans; assay: Antifungal activity against Candida albicans assessed as induction of microbial cell killing at 25 to 250 nM/mL by polarizing microscopy; format: functional, organism-based
[12] = tested on: Candida albicans; assay: Antifungal activity against Candida albicans assessed as induction of cell fracture at 2.5 nM/mL by polarizing microscopy; format: functional, organism-based
[13] = tested on: Candida albicans; assay: Antifungal activity against fluconazole-resistant Candida albicans 100 assessed as inhibition of microbial growth by NCCLS protocol based method; format: functional
[14] = tested on: Candida albicans; assay: Antifungal activity against Candida albicans assessed as inhibition of microbial growth at 2.5 nM/mL by polarizing microscopy; format: functional, organism-based
[15] = tested on: Candida albicans; assay: Inhibition of SE/CYP51 in Candida albicans ATCC SC5314 assessed as effect on sterol composition by measuring ergosterol level at 16 ug/ml incubated for 90 mins by HPLC analysis (reference value: 64.2%); design: scale not given: the % may be the effect or the level left
[16] = tested on: Candida albicans; assay: Inhibition of SE/CYP51 in Candida albicans ATCC SC5314 assessed as effect on sterol composition by measuring Lanosterol level at 16 ug/ml incubated for 90 mins by HPLC analysis (reference value: 10.99%); design: scale not given: the % may be the effect or the level left
[17] = tested on: Candida albicans; assay: Inhibition of SE/CYP51 in Candida albicans ATCC SC5314 assessed as effect on sterol composition by measuring Eburicol level at 16 ug/ml incubated for 90 mins by HPLC analysis (reference value: 8.3%); design: scale not given: the % may be the effect or the level left
[18] = tested on: Heme; assay: Binding affinity to heme by UV-Visible spectroscopy
[19] = tested on: Candida albicans; assay: Inhibition of SE/CYP51 in Candida albicans ATCC SC5314 assessed as effect on sterol composition by measuring Squalene level at 16 ug/ml incubated for 90 mins by HPLC analysis; design: scale not given: the % may be the effect or the level left
[20] = tested on: Heme; assay: Binding affinity to heme by fluorescence spectrum analysis
[21] = tested on: Candida albicans; assay: Inhibition of SE/CYP51 in Candida albicans ATCC SC5314 assessed as effect on sterol composition by measuring Unidentified sterol level at 16 ug/ml incubated for 90 mins by HPLC analysis (reference value: 16.51%); design: scale not given: the % may be the effect or the level left

O=C(CNC(=O)c1ccc2ccccc2c1)NCc1cccnc1
MIC [1]: 2 µg/mL | MIC [2]: > 16 µg/mL | MIC [3]: 1 µg/mL | MIC [4]: 4 µg/mL | MIC [5]: 0.5 µg/mL

O=C(CNC(=O)c1ccc2ccccc2c1)NCc1ccncc1
MIC [1]: 1 µg/mL | MIC [2]: 2 µg/mL | MIC [3]: 0.25 µg/mL | MIC [4]: 0.25 µg/mL | MIC [5]: 0.5 µg/mL

C[C@H](NC(=O)c1ccc2ccccc2c1)C(=O)NCc1cccnc1
MIC [1]: 0.5 µg/mL | MIC [2]: 4 µg/mL | MIC [3]: 0.5 µg/mL | MIC [4]: 1 µg/mL | MIC [5]: 2 µg/mL

CC(C)[C@H](NC(=O)c1ccc2ccccc2c1)C(=O)NCc1cccnc1
MIC [1]: 4 µg/mL | MIC [2]: > 16 µg/mL | MIC [3]: 8 µg/mL | MIC [4]: 2 µg/mL | MIC [5]: 2 µg/mL

O=C(N[C@H](C(=O)NCc1ccncc1)c1ccccc1)c1ccc2ccccc2n1
MIC [1]: 4 µg/mL | MIC [2]: > 16 µg/mL | MIC [3]: 2 µg/mL | MIC [4]: > 16 µg/mL | MIC [5]: > 16 µg/mL

O=C(N[C@H](C(=O)NCc1cccnc1)c1ccccc1)c1ccc2ccccc2c1
MIC [1]: 8 µg/mL | MIC [2]: > 16 µg/mL | MIC [3]: > 16 µg/mL | MIC [4]: > 16 µg/mL | MIC [5]: 8 µg/mL

O=C(CNC(=O)c1ccc2ccccc2n1)NCc1ccncc1
MIC [1]: 0.5 µg/mL | Activity [6]: Active | Activity [7]: Active | MIC [2]: 2 µg/mL | MIC [8]: 1 µg/mL | Activity [9]: Active | MIC [3]: 0.25 µg/mL | growth inhibition (GI) [10]: Active | Activity [11]: Active | Activity [12]: Active | MIC [4]: 0.5 µg/mL | MIC [13]: 2 µg/mL | MIC [5]: 0.125 µg/mL | growth inhibition (GI) [14]: Active

CC(C)[C@H](NC(=O)c1ccc2ccccc2n1)C(=O)NCc1ccncc1
MIC [1]: 0.5 µg/mL | MIC [2]: > 16 µg/mL | MIC [3]: 0.5 µg/mL | MIC [4]: 2 µg/mL | MIC [5]: 4 µg/mL

C[C@H](NC(=O)c1ccc2ccccc2n1)C(=O)NCc1cccnc1
MIC [1]: 2 µg/mL | MIC [2]: 8 µg/mL | MIC [3]: 1 µg/mL | MIC [4]: 0.25 µg/mL | MIC [5]: 0.5 µg/mL

CC(C)[C@H](NC(=O)c1ccc2ccccc2n1)C(=O)NCc1cccnc1
MIC [1]: 1 µg/mL | MIC [2]: 4 µg/mL | MIC [3]: 0.5 µg/mL | MIC [4]: 0.5 µg/mL | MIC [5]: 2 µg/mL

O=C(N[C@H](C(=O)NCc1cccnc1)c1ccccc1)c1ccc2ccccc2n1
MIC [1]: > 16 µg/mL | MIC [2]: > 16 µg/mL | MIC [3]: 8 µg/mL | MIC [4]: 4 µg/mL | MIC [5]: 2 µg/mL

O=C(CNC(=O)c1ccc2ccccc2n1)NCc1cccnc1
MIC [1]: 0.5 µg/mL | MIC [2]: 2 µg/mL | MIC [3]: 0.5 µg/mL | MIC [4]: 2 µg/mL | MIC [5]: 1 µg/mL

C[C@H](NC(=O)c1ccc2ccccc2c1)C(=O)NCc1ccncc1
MIC [1]: 0.5 µg/mL | MIC [2]: 2 µg/mL | MIC [3]: 0.25 µg/mL | MIC [4]: 1 µg/mL | MIC [5]: 0.25 µg/mL

OC(Cn1cncn1)(Cn1cncn1)c1ccc(F)cc1F [FLUCONAZOLE]
MIC [1]: 0.5 µg/mL | Activity [15]: 11.3% | Activity [6]: Active | Activity [7]: Active | MIC [2]: > 16 µg/mL | Activity [16]: 49.2% | Activity [17]: 39.5% | Activity [18]: Active | MIC [8]: > 16 µg/mL | Activity [9]: Active | MIC [3]: 0.5 µg/mL | growth inhibition (GI) [10]: Active | Activity [11]: Active | MIC [4]: 1 µg/mL | MIC [13]: > 16 µg/mL | MIC [5]: 2 µg/mL | growth inhibition (GI) [14]: inactive

C[C@H](NC(=O)c1ccc2ccccc2n1)C(=O)NCc1ccncc1
MIC [1]: 0.25 µg/mL | Activity [15]: 9.02% | Activity [19]: 13.4% | Activity [6]: Active | Activity [7]: Active | MIC [2]: 1 µg/mL | Activity [16]: 50.1% | Activity [17]: 27.4% | Activity [18]: Active | MIC [8]: 2 µg/mL | Activity [9]: Active | MIC [3]: 0.125 µg/mL | growth inhibition (GI) [10]: Active | Activity [11]: Active | Activity [12]: Active | MIC [4]: 0.125 µg/mL | MIC [13]: 0.5 µg/mL | MIC [5]: 0.25 µg/mL | growth inhibition (GI) [14]: Active | Activity [20]: Dose-dependent effect

CC(C)[C@H](NC(=O)c1ccc2ccccc2c1)C(=O)NCc1ccncc1
MIC [1]: 0.5 µg/mL | MIC [2]: 8 µg/mL | MIC [3]: 2 µg/mL | MIC [4]: 0.5 µg/mL | MIC [5]: 2 µg/mL

CN(C/C=C/C#CC(C)(C)C)Cc1cccc2ccccc12 [TERBINAFINE]
MIC [1]: 0.5 µg/mL | Activity [15]: 10.6% | Activity [21]: 7.27% | Activity [19]: 37.8% | Activity [6]: Active | Activity [7]: Active | MIC [2]: 2 µg/mL | Activity [16]: 22.4% | Activity [17]: 21.9% | MIC [8]: 4 µg/mL | Activity [9]: Active | MIC [3]: 0.25 µg/mL | growth inhibition (GI) [10]: Active | Activity [11]: Active | MIC [4]: 1 µg/mL | MIC [13]: 8 µg/mL | MIC [5]: 2 µg/mL | growth inhibition (GI) [14]: inactive

O=C(N[C@H](C(=O)NCc1ccncc1)c1ccccc1)c1ccc2ccccc2c1
MIC [1]: 4 µg/mL | MIC [2]: > 16 µg/mL | MIC [3]: 4 µg/mL | MIC [4]: 8 µg/mL | MIC [5]: > 16 µg/mL
